Article PMC5937082, “Prediction of Lipophilicity and Pharmacokinetics of Chloroacetamides by Chemometric Approach” (Iranian Journal of Pharmaceutical Research : IJPR, 2018)

Test: Lipophilicity by reversed-phase thin-layer chromatography (RPTLC, RP-18W/UV254 plates)
Assay type: physicochemical
Conditions: φ = 0.34 - 0.56 v/v, room temperature
Procedure: During chromatographic examinations commercial plates (RP-18W/UV254 Macherey-Nagel GmBH and Co., Duren, Germany) were used as the stationary phase. Mixtures of LC grade organic modifiers (J. T. Baker, Deventer, the Netherlands) and filtered bi-distilled water were used as the mobile phase.
The tested chloroacetamides were dissolved in ethanol (analytical purity) in concentration 2 mg mL^–1. About 0.2 µL of freshly prepared solution of each compound was spotted on the plates which were then developed by the ascending technique in the unsaturated chambers at room temperature with an aqueous solutions of two organic modifiers: methanol (φ = 0.34 - 0.56, v/v) and acetone (φ = 0.34 - 0.56, v/v). The visualization of the tested compounds on the dried developed plates was performed under a UV light at λ= 254 nm. In both applied modifiers for each composition three chromatograms were developed and then the average Rf values were calculated.
From the experimentally obtained Rf values, for each composition of the mobile phase, RM values were calculated according to the Equation: […]
The relationships between the retention values, RM, of the compound and the volume fraction of the organic modifier in the mobile phase, φ, were given by:
Where intercept, RM^0, represents the chromatographic retention constant, while the slope of the linear plot, m, which is the change in RM is caused by the unit of the organic modifier concentration in the mobile phase and depends on the properties of the solute. Commonly, it is related to the specific hydrophobic surface area of the compound ([39]). Chromatographic parameter m can be applied as alternative measure of lipophilicity, also ([40], [41]).Values of these parameters obtained for chloroacetamides in the used modifiers are given in Table 4.

Row | SMILES | R M ^0 (chromatographic retention constant, intercept) (acetone-water mobile phase) | m (slope of RM vs φ) (acetone-water mobile phase) | R M ^0 (chromatographic retention constant, intercept) (methanol-water mobile phase) | m (slope of RM vs φ) (methanol-water mobile phase)
1 | O=C(CCl)Nc1ccc(I)cc1 [Compound 4I] | 1.963 (±0.143) | -3.375 (±0.323) | 2.124 (±0.122) | -3.282 (±0.266)
2 | N#Cc1cccc(NC(=O)CCl)c1 [Compound 3CN] | 1.186 (±0.101) | -2.278 (±0.218) | 1.362 (±0.082) | -2.726 (±0.182)
3 | CC(=O)c1ccc(NC(=O)CCl)cc1 [Compound 4COCH3] | 1.118 (±0.077) | -2.396 (±0.173) | 1.275 (±0.121) | -2.549 (±0.263)
4 | Cc1ccc(NC(=O)CCl)cc1 [Compound 4CH3] | 1.370 (±0.097) | -2.583 (±0.220) | 1.542 (±0.067) | -2.673 (±0.146)
5 | O=C(CCl)Nc1ccc(O)cc1 [Compound 4OH] | 0.763 (±0.030) | -1.865 (±0.068) | 1.577 (±0.069) | -3.032 (±0.154)
6 | O=C(CCl)Nc1ccc(Cl)cc1 [Compound 4Cl] | 1.636 (±0.139) | -2.945 (±0.313) | 1.788 (±0.140) | -2.944 (±0.306)
7 | O=C(CCl)Nc1ccc(F)cc1 [Compound 4F] | 1.341 (±0.042) | -2.440 (±0.095) | 1.354 (±0.088) | -2.486 (±0.192)
8 | O=C(CCl)Nc1ccc(Br)cc1 [Compound 4Br] | 1.849 (±0.087) | -3.175 (±0.195) | 1.951 (±0.100) | -3.137 (±0.218)
9 | O=C(CCl)Nc1cccc(Br)c1 [Compound 3Br] | 1.780 (±0.105) | -3.105 (±0.238) | 1.958 (±0.115) | -3.151 (±0.251)
10 | N#Cc1ccc(NC(=O)CCl)cc1 [Compound 4CN] | 1.074 (±0.117) | -2.033 (±0.263) | 1.382 (±0.039) | -2.749 (±0.086)
11 | O=C(CCl)Nc1ccccc1 [H] | 1.106 (±0.132) | -2.225 (±0.285) | 1.171 (±0.123) | -2.309 (±0.268)
12 | COc1ccc(NC(=O)CCl)cc1 [Compound 4OCH3] | 1.130 (±0.115) | -2.431 (±0.258) | 1.247 (±0.122) | -2.478 (±0.265)
